5 compounds from patent US20100021895A1, “Vectors for Inducing Homozygous Mutations and Methods of Using Same” (priority 2006, published 2010) can be followed below.

Molecules are shown by their SMILES.

In this assay the test system is mouse embryonic stem cell clones, each containing a neomycin resistance gene (Neo) inserted by the GTR1.3 gene trap retrovirus. Kind of assay: Carcinogen-induced LOH: frequency of colony formation in 2.0 mg/ml G418. The class given is cell-based. The conditions noted are these: for enhanced colony formation, average: at least 25 entrapment lines. The procedure: Carcinogen-induced LOH was measured in a panel of 53 mouse embryonic stem cell clones, each containing a neomycin resistance gene (Neo) inserted into a different cellular gene (FIG. 9) by the GTR1.3 gene trap retrovirus. Gene entrapment by GTR1.3 involves selection for inserted Neo sequences that can splice to the 3′ ends of cellular genes (Lin et al.,). The disrupted genes were identified by sequencing Neo-gene fusion transcripts and were localized on the mouse genome. Previous studies have shown that cells homozygous for GTR1.3-induced mutations can be selected from heterozygous cells simply by selecting for resistance to higher concentrations of G418, a method first shown to select for homozygous mutations induced by gene targeting (15). Mitotic recombination appears to be the preferred mechanism of spontaneous LOH involving Neo genes inserted in ES cells (17) and LOH involving other genes and cell types in vivo (12, 13). LOH doubles the number of Neo genes per cell and thus allows moderately resistant cells to acquire resistance to higher concentrations of G418. The frequencies of spontaneous LOH measured at the 53 different sites ranged from 1.3×10^−5 to 1.2×10^−4 (Table 3), similar to those reported for other inserted neomycin resistance genes (15, 17) in ES cells and for loci such as TK and APRT in other cell types (12, 13).
A variety of chemical agents were tested for their ability to enhance the frequencies at which mutant cells survive in 2.0 mg/ml G418. Methyl-nitrosurea (MNU) is an alkylating agent that produces a variety of mono-methylated DNA adducts, hydroxyurea (HU) stalls DNA replication complexes, doxorubicin interferes with DNA synthesis, methothrexate is a competitive inhibitor of dihydrofolate reductase but is not genotoxic, diepoxybutane and mitomycin C induce inter-strand DNA crosslinks, UV irradiation causes intra- and inter-strand pyrimidine dimmers, and ethidium bromide intercalates between DNA strands to damage DNA (For additional information about these agents see http://toxnet.nlm.nih.gov and http://lisntweb.swan.ac.uk/cmgt/index.htm). […] The fold-increase for MNU and HU ranged from 39-123 and 18-68, respectively (Table 3). The optimal concentrations of each agent to stimulate colony formation with minimal toxicity (<5% loss of cell viability) were determined in advance (FIG. 13). […] Each of these agents was tested two or more times on at least 25 entrapment lines.
Serially diluted cells were plated onto 150 mm plates containing drug-free media and allowed to attach overnight. Unattached cells were removed and media containing the indicated concentrations of methyl-nitrosourea, hydroxyurea, ethidium bromide, doxorubicin, methotrexate, diepoxybutane, or mitomycin C was put onto cells for 4 hours (or cells were exposed to ultraviolet light in the absence of media and allowed to recover in drug-free media for 4 hours). Cells were then rinsed twice with drug-free media and selection media containing 0.0, 0.3, or 2.0 mg/ml G418 was put onto cells. After 12 days of selection, the number of colonies surviving was counted and the frequency of colony formation was determined by dividing the number of colonies obtained from 2.0 mg/ml G418 selection to that obtained from parallel experiments with 0.3 mg/ml G418 selection. TK gene loss was assessed following selection in media containing 2 μg/ml gancyclovir.
Table 3. The frequency of colony formation in high concentrations of G418. The frequency of colony formation is listed for all 53 clones examined. Frequency was determined by dividing the number of colonies surviving 2.0 mg/ml G418 selection to the number surviving parallel experiments with 0.3 mg/ml G418 selection, and is the average of at least 3 independent experiments for each clone. Standard deviations, which ranged from 5 to 70% of the mean values, have been omitted for clarity. […]

For the compound `CC[n+]1c(-c2ccccc2)c2cc(N)ccc2c2ccc(N)cc21` [EtBr, ethidium bromide], the “effect on colony formation in high G418” value (ethidium bromide 25 μg/ml) is “no significant effect”. Consider `C1OC1C1CO1` (stereo not drawn) [diepoxybutane], for which, for the setting “ES cells heterozygous for Xrcc5 entrapment mutation, 4 hours with 0.5 mM methyl-nitrosourea, 0.25 mM hydroxyurea or 100 ng/ml diepoxybutane”, the “survival of mutant ES cells in media containing 2.0 mg/ml G418” value was “enhances the survival”. In addition, the “enhanced colony formation, average” value (diepoxybutane 100 ng/mL) was 16 fold. `COc1cccc2c1C(=O)c1c(O)c3c(c(O)c1C2=O)C[C@@](O)(C(=O)CO)C[C@@H]3O[C@H]1C[C@H](N)[C@H](O)[C@H](C)O1` [doxorubicin]: for the setting “doxorubicin 0.1 μM”, the “enhanced colony formation, average” value worked out at 15 fold. In the case of `CN(Cc1cnc2nc(N)nc(N)c2n1)c1ccc(C(=O)N[C@@H](CCC(=O)O)C(=O)O)cc1` [methothrexate], the “effect on colony formation in high G418” value (methothrexate 50 μM) is “no significant effect”. On to `CO[C@@]12[C@H](COC(N)=O)C3=C(C(=O)C(C)=C(N)C3=O)N1C[C@@H]1N[C@@H]12` [mitomycin C], for which the “enhanced colony formation, average” value (mitomycin C 50 ng/mL) is recorded as 14 fold.
